Values quoted from earlier work as cited in patent publication US7279184B2, “Methods and compositions comprising Ilex” (HerbalScience, LLC, priority 2003, dated 2007).

Cn1cnc2c1c(=O)[nH]c(=O)n2C [Theobromine, 3,7-dimethyl-xanthine]
half-life after ingestion: approximately 6 hours
